Laboratory results from US11999683B2, “Lipocationic dendrimers and uses thereof” (priority 2015, dated 2024).

Columns and labels:
[1] = In vivo toxicity evaluation (body weight) in wild type mice; details: i.v., 4 mg siCTR/kg (100 mg dendrimer/kg or 28 mg C12-200/kg)
Description: (§1) Wild-type mice or transgenic mice bearing liver tumors were randomly divided into different groups. Mice received tail vein i.v. injections of dendrimer NPs containing siCTR. Their body weight was monitored daily. For transgenic mice bearing liver tumors, multiple tail vain injections were performed to simulate repeated dosing.
To identify degradable dendrimers with the required balance of low toxicity and high potency required for liver cancer treatment, the degradable dendrimers were chose to evaluate their in vivo toxicity. In parallel, we analyzed C12-200 lipidoid LNPs wee chose as the best example of a non-hydrolyzable system previously shown to be potent in mice and non-human primates (Love et al., 2010). Lipidoids, as a class, are benchmark materials at the forefront of clinical research (Kanasty et al., 2013; Love et al., 2010; Sahay et al., 2013). Non-immunogenic control siRNA was used to best evaluate the toxicity of the individual dendrimers themselves. Dendrimer NPs were formulated at a weight ratio of 25:1 (dendrimer:siCTR), higher than necessary to better probe toxicity. C12-200 LNPs were prepared using identical formulation parameters as previously reported (Love et al., 2010). Size and zeta potential of each NP in PBS buffer was characterized. […] Each formulated NP was injected i.v. into wild type mice at a 4 mg siCTR/kg dose (100 mg dendrimer/kg or 28 mg C12-200/kg). […]

[2] = In vivo toxicity evaluation in transgenic mice bearing MYC-driven liver tumors; details: for survival after multiple injections of siCTR NPs: tumor-bearing mice, injected days 32, 36, 40, 44 at 3 mg siCTR/kg (75 mg dendrimer/kg)
Description: All experiments were approved by the Institutional Animal Care and Use Committees of The University of Texas Southwestern Medical Center and were consistent with local, state and federal regulations as applicable. Female C57BL/6 mice were purchased from Harlan Laboratories (Indianapolis, IN). Transgenic mice bearing MYC-driven liver tumors were generated by crossing the TRE-MYC strain with LAP-tTA strain. Mice bearing the LAP-tTA and TRE-MYC genotype were maintained on 1 mg/mL of dox, and MYC was induced by withdrawing dox. Power analysis was performed to anticipate required number of animals to achieve statistical significance.
as §1
A well-established Tet-On MYC inducible transgenic liver cancer model ws chosen (FIG. 13A) (Nguyen et al., 2014). […] At the age of 32 days (p32), these sick transgenic mice bearing aggressive liver tumors were injected with 5A2-SC8 or 6A3-SC12 NPs at 3 mg siCTR/kg dosage (75 mg dendrimer/kg or 21 mg C12-200/kg). […] In contrast to the result in WT mice, injection of C12-200 LNPs to mice bearing aggressive tumors lost >20% weight after one day, despite receiving ˜3 times less lipid than 5A2-SC8 injected mice (FIG. 12D). […] In addition to being less toxic than benchmark compounds, 5A2-SC8 NPs are more efficacious because these dendrimers reduce clinical concern for dose limiting toxicity and enable a wider therapeutic window.

Factor VII = assay: In vivo Factor VII silencing in mice; details: 1 mg siFVII/kg
Description: For in vivo delivery screening, female C57BL/6 mice received tail vein i.v. injections of PBS (negative control, n=3) or dendrimer NPs containing non-targeting siRNA (siCTR, negative control, n=3) or dendrimer NPs containing anti-Factor VII siRNA (siFVII, n=3) diluted in PBS (200 μL or less in total volume). After 48 h, body-weight gain/loss was measured and mice were anaesthetized by isofluorane inhalation for blood sample collection by retro-orbital eye bleed. Serum was isolated with serum separation tubes (Becton Dickinson) and Factor VII protein levels were analyzed by a chromogenic assay (Biophen FVII, Aniara Corporation). A standard curve was constructed using samples from PBS-injected mice and relative Factor VII expression was determined by comparing treated groups to an untreated PBS control.
Having identified dendrimers that can overcome intracellular barriers, next, the dendrimers that can overcome extracellular barriers to efficiently deliver siRNA in vivo were identified. […] Dendrimers were evaluated for their ability to silence Factor VII in hepatocytes because this blood clotting factor can be readily quantified from a small serum sample (Akinc et al., 2008; Semple et al., 2010). […] FVII activity was quantified 3 days post injection.

[3] = Biodistribution of Cy5.5-labeled siRNA in liver tumor-bearing mice; type: in vivo; details: Cy5.5-labeled siRNA 1 mg/kg i.v., 24 hours post-injection
Description: Female C57BL/6 mice or transgenic mice bearing liver tumors received tail vein i.v. injections with dendrimer NPs containing Cy5.5-siRNA at 1 mg/kg of siRNA in 200 μL. At 24 h post injection, mice were euthanized and organs were removed. The biodistribution was assessed by imaging whole organs with an IVIS Lumina System (Caliper Life Sciences) with the Cy5.5 filter setting.
For confocal imaging, the tissue was cryo-sectioned ([…]) and fixed using 4% paraformaldehyde at room temperature for 10 min. The slides were washed three times with PBS and blocked for 30 min in PBS with 1% albumin. Sections were then incubated for 30 min with Alexa Fluor 488 Phalloidin (1:200 dilution, Life Technologies) in PBS with 1% albumin. Slides were washed three times with 0.1% Tween 20 and mounted using ProLong Gold Antifade (Life Technologies). Sections were imaged using an LSM 700 point scanning confocal microscope (Zeiss) equipped with a 25× objective.
Since 5A2-SC8 balances low in vivo toxicity and effectiveness for silencing the hepatocellular target FVII, first, whether 5A2-SC8 NPs could deliver siRNA into tumor cells was examined. At the age of 41 days (p41), the livers of these transgenic mice are full of tumors (FIG. 14A). On p40, mice were injected intravenously with 5A2-SC8 NPs with Cy5.5-labeled siRNA at a dosage of 1 mg siRNA/kg. […]

[4] = tumor-bearing mice p32, 3 mg siCTR/kg (75 mg dendrimer/kg)

SMILES	body weight change [1]	tolerance in tumor-bearing mice ([2]; LAP-tTA/TRE-MYC transgenic, mouse, in vivo)	body weight loss ([2]; tumor-bearing mice p32, 3 mg siCTR/kg (75 mg dendrimer/kg or 21 mg C12-200/kg), after one day)	body weight recovery [2, 4]	survival after multiple injections of siCTR NPs [2]	in vivo FVII knockdown (Factor VII) [%]	siRNA accumulation in organs (fluorescence imaging) [3]	body weight loss ([2]; tumor-bearing mice p32, 3 mg siCTR/kg (75 mg dendrimer/kg), by the third day) [%]
CCCCCCCCSCC(C)C(=O)OCCOC(=O)CCN(CCNCCN(CCC(=O)OCCOC(=O)C(C)CSCCCCCCCC)CCC(=O)OCCOC(=O)C(C)CSCCCCCCCC)CCNCCN(CCC(=O)OCCOC(=O)C(C)CSCCCCCCCC)CCC(=O)OCCOC(=O)C(C)CSCCCCCCCC (centres unmarked) [5A2-SC8]	quicker recovery and gained weight normally after the first day	up to 75 mg/kg	about 5%	quickly returned to their starting weight on the second day	well tolerated and not affect survival	> 95	siRNA accumulation in the cancerous liver, with only minor accumulation in the spleen and kidneys	–
CCCCCCCCCCCCSCC(C)C(=O)OCCOC(=O)CCN(CCC(=O)OCCOC(=O)C(C)CSCCCCCCCCCCCC)CCN(CCN(CCC(=O)OCCOC(=O)C(C)CSCCCCCCCCCCCC)CCC(=O)OCCOC(=O)C(C)CSCCCCCCCCCCCC)CCN(CCC(=O)OCCOC(=O)C(C)CSCCCCCCCCCCCC)CCC(=O)OCCOC(=O)C(C)CSCCCCCCCCCCCC (centres unmarked) [6A3-SC12]	quicker recovery and gained weight normally after the first day	–	–	could not recover	died seven days earlier compared to mice that received no treatment	–	–	10
